Test results reported in US10221163B2 (priority 2015, dated 2019).
Where a name gives a salt, the structure may show the parent alone. Read-outs that look alike come from different tables or passages of the source.

Assays:
[1] = system: Pseudomonas aeruginosa efflux+ (MB9798), IMP-1; assay type: cell-based; set-up: Concentration of metallo-β-lactamase inhibitor which restores susceptibility of efflux + (MB9798) strain to imipenem: unit not given here; settings: efflux+ MB9798; imipenem at 2 μg/mL; in the presence of a class A, C, D serine β-lactamase inhibitor closely related to relebactam
Summary of the method: (§1)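 P. aeruginosa PAO1-derived IMP-1 strains, efflux+ MB9798 and efflux− MB9799, tested by standard microbroth MIC with imipenem and/or ceftazidime fixed, usually at CLSI breakpoint, plus fixed class A/C β-lactamase inhibitor against AmpC. Inhibitor titrated; concentration restoring susceptibility recorded; MB9798/MB9799 fold difference indicates efflux.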

[2] = molecular target: VIM-1 (Pseudomonas aeruginosa (strain ATCC 15692 / DSM 22644 / CIP 104116 / JCM 14847 / LMG 12228 / 1C / PRS 101 / PAO1), UniProt A0A0F7KYQ8); assay: biochemical; settings: CCF2-FA substrate, 30 pM enzyme, 2 hours at 25° C.
Summary of the method: (§2)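 Enzyme activity was measured by fluorescence using CCF2-FA, a cephalosporin-linked 7-hydroxycoumarin/fluorescein substrate, with inhibitor, metallo-β-lactamase and substrate incubated together for 2 hours at 25° C. IC50 came from a 4-parameter fit of inhibition versus log inhibitor concentration.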

[3] = system: Escherichia coli expressing NDM-1 (CLB30005, CLB30016); assay type: cell-based; settings: NDM-1 strain, with imipenem 1 μg/ml, 95% inhibition of growth
Summary of the method: (§3)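 Clinical isolates (E. coli NDM-1, S. marcescens IMP-1, K. pneumoniae VIM-1) were diluted 1:100 from saline suspension into 1.1×CAMHB and exposed to test compound with imipenem at 1 μg/ml. Plates were incubated at 35° C for 22 hours to 24 hours, and growth was read by absorbance.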

[4] = system: Serratia marcescens expressing IMP-1 (CL5741); assay type: cell-based; settings: IMP-1 strain CL5741, with imipenem 1 μg/ml, 95% inhibition of growth
Summary of the method: as §3

[5] = system: Klebsiella pneumoniae expressing VIM-1 (IHMA599644); assay type: cell-based; settings: VIM-1 strain IHMA599644, with imipenem 1 μg/ml, 95% inhibition of growth
Summary of the method: as §3

[6] = system: Pseudomonas aeruginosa MB9798 vs MB9799; settings: fold difference between efflux+ (MB9798) and efflux− (MB9799) strains, imipenem at 2 μg/mL
Summary of the method: as §1

[7] = molecular target: IMP-1 (Serratia marcescens, UniProt P52699); assay: biochemical; assay type: biochemical; settings: fluorescence assay, CCF2-FA substrate, 2 pM enzyme, 2 hours at 25° C., read-out: IMP-1 IC50
Chain of IMP-1 (P52699 whole entry, looked up, species assumed): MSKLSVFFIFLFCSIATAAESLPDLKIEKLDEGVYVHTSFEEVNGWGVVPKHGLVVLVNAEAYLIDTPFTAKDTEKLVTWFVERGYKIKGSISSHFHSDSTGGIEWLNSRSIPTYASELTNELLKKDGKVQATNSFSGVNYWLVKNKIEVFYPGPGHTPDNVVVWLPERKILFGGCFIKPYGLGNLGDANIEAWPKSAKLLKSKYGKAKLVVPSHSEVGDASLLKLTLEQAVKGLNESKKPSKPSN
Summary of the method: as §2

[8] = molecular target: NDM-1 (Klebsiella pneumoniae, UniProt C7C422); assay: biochemical; assay type: biochemical; settings: fluorescence assay, CCF2-FA substrate, 1 pM enzyme, 2 hours at 25° C., read-out: NDM-1 IC50
Chain of NDM-1 (C7C422 whole entry, looked up, species assumed): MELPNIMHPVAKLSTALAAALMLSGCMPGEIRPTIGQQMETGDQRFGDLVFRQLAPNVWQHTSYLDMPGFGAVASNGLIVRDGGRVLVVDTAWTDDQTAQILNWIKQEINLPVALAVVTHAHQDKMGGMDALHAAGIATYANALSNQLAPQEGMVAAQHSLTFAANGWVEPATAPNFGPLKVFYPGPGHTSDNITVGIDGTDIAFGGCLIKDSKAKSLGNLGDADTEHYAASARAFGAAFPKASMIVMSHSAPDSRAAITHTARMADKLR
Summary of the method: as §2

[9] = system: Pseudomonas aeruginosa efflux− (MB9799), IMP-1; assay type: cell-based; settings: efflux− MB9799, imipenem at 2 μg/mL, in the presence of a class A, C, D serine β-lactamase inhibitor closely related to relebactam
Summary of the method: as §1

[10] = fluorescence assay, read-out: VIM-1 IC50

| Structure (SMILES) | Concentration of metallo-β-lactamase inhibitor which restores susceptibility of efflux + (MB9798) strain to imipenem [1] | IC50 [2, 10] | Escherichia coli MITC95 [3] | Serratia marcescens MITC95 [4] | Klebsiella pneumoniae MITC95 [5] | Efflux ratio [6] | IC50 [7] | IC50 [8] | Concentration of metallo-β-lactamase inhibitor which restores susceptibility of efflux − (MB9799) strain to imipenem [9] | IC50 ([2]; VIM-1 IC50, fluorescence assay) | Escherichia coli MITC95 ([3]; dihydrochloride) | Efflux ratio ([6]; dihydrochloride) | IC50 ([7]; dihydrochloride) | IC50 ([8]; dihydrochloride) | Concentration of metallo-β-lactamase inhibitor which restores susceptibility of efflux − (MB9799) strain to imipenem ([9]; dihydrochloride) |
| --- | --- | --- | --- | --- | --- | --- | --- | --- | --- | --- | --- | --- | --- | --- | --- |
| Nc1ccc(-c2ccc(S(=O)(=O)NC[C@H]3CCNC3)c(S(N)(=O)=O)c2-c2nn[nH]n2)cn1 [Example 484, (S)-4-(6-aminopyridin-3-yl)-N1-(pyrrolidin-3-ylmethyl)-3-(2H-tetrazol-5-yl)benzene-1,2-disulfonamide] | 0.7813 | 0.131 nM | 0.1953 µM | 0.3906 µM | 3.125 µM | 1.00 | 0.248 nM | 0.102 nM | 0.7813 |  |  |  |  |  |  |
| Nc1ccc(-c2ccc(S(=O)(=O)N3CCNCC3)c(S(N)(=O)=O)c2-c2nn[nH]n2)cn1 [Example 485, 3-(6-aminopyridin-3-yl)-6-(piperazin-1-ylsulfonyl)-2-(2H-tetrazol-5-yl)benzenesulfonamide] | 6.25 | 2.3 nM | 0.1953 µM | 0.7813 µM | 1.563 µM | 8.00 | 3.58 nM | 2.22 nM | 0.7813 |  |  |  |  |  |  |
| NC[C@@]1(NS(=O)(=O)c2ccc(-c3ccc(N)nc3)c(-c3nn[nH]n3)c2S(N)(=O)=O)CCNC1 [Example 487, (S)-N1-(3-(aminomethyl)pyrrolidin-3-yl)-4-(6-aminopyridin-3-yl)-3-(2H-tetrazol-5-yl)benzene-1,2-disulfonamide dihydrochloride] | 1.563 |  |  | 0.7813 µM | 1.563 µM |  |  |  |  | 0.527 nM | 0.3906 µM | 1.00 | 0.803 nM | 0.274 nM | 1.563 |
| Nc1ccc(-c2ccc(S(=O)(=O)NC[C@@H]3CCCN3)c(S(N)(=O)=O)c2-c2nn[nH]n2)cn1 [Example 488, (S)-4-(6-aminopyridin-3-yl)-N1-(pyrrolidin-2-ylmethyl)-3-(2H-tetrazol-5-yl)benzene-1,2-disulfonamide] | 0.7813 | 0.21 nM | 0.1953 µM | 0.1953 µM | 1.563 µM | 1.00 | 0.355 nM | 0.206 nM | 0.7813 |  |  |  |  |  |  |
| Nc1ccc(-c2ccc(S(=O)(=O)NC[C@H]3CCCN3)c(S(N)(=O)=O)c2-c2nn[nH]n2)cn1 [Example 489, (R)-4-(6-aminopyridin-3-yl)-N1-(pyrrolidin-2-ylmethyl)-3-(2H-tetrazol-5-yl)benzene-1,2-disulfonamide] | 1.563 | 0.267 nM | 0.3906 µM | 0.3906 µM | 1.563 µM | 2.00 | 0.566 nM | 0.246 nM | 0.7813 |  |  |  |  |  |  |
| Nc1ccc(-c2ccc(S(=O)(=O)NC[C@@H]3CCNC3)c(S(N)(=O)=O)c2-c2nn[nH]n2)cn1 [Example 491, (R)-4-(6-aminopyridin-3-yl)-N1-(pyrrolidin-3-ylmethyl)-3-(2H-tetrazol-5-yl)benzene-1,2-disulfonamide] | 0.7813 | 0.132 nM | 0.1953 µM | 0.7813 µM | 1.563 µM | 1.00 | 0.271 nM | 0.0939 nM | 0.7813 |  |  |  |  |  |  |
